From patent US20250026750A1, “SULFOXIMINE-CONTAINING ATR INHIBITOR COMPOUND” (Chia Tai Tianqing Pharmaceutical Group Co., Ltd., priority 2021, published 2025)
One block for each compound: values may come before it.

Columns and labels:
[1] = system: TMD-8 cells; assay: Assay for inhibitory activity on TMD-8 cell proliferation (CCK-8); type: cell-based
Protocol: TMD-8 cells in a good growth state were collected into a centrifuge tube, adjusted to a cell density of 4×10^4 cells/mL, and inoculated onto a 96-well plate (100 μL/well), and the plate was incubated overnight in a cell incubator. Compounds were added using a nanoliter pipettor such that the final concentrations of the compounds were 10,000 nM-4.57 nM (the addition was performed in duplicate). Meanwhile, a control was set. After another 72 h of incubation in the cell incubator, the assay reagent CCK-8 (manufacturer: Dojindo Laboratories; 10 μL/well) was added. After 4 h of incubation in the cell incubator, absorbance was measured at 450 nm on an Envision microplate reader. A four-parameter analysis was performed, a dose-response curve was fit, and IC50 was calculated. The results are shown in Table 2, where A represents IC50≤200 nM.

[2] = Pharmacokinetic evaluation of compounds in mice; type: in vivo; conditions: ICR mice
Protocol: ICR mice, weighing 18-22 g, were randomized into 4 groups of 9 after 3-5 days of acclimatization, and were administered intragastrically (IG) a test compound at a dose of 10 mg/kg and intravenously (IV) a test compound at a dose of 1 mg/kg.
The test animals (ICR mice) were fasted for 12 h before the administration and given food 4 h after the administration, and they were given ad libitum access to water before, during and after the experiment.
Orbital blood samples of about 0.1 mL were collected at 15 min, 30 min, 1 h, 2 h, 3 h, 4 h, 6 h, 8 h, 10 h and 24 h after the intragastric administration. Orbital blood samples of about 0.1 mL were collected at 5 min, 10 min, 30 min, 1 h, 2 h, 4 h, 6 h, 8 h, 10 h and 24 h after the intravenous administration. The blood sample collection was performed at 3-4 time points for each mouse, 3 mice/per time point. The collected whole blood was placed in EDTA-K2-containing centrifuge tubes and stored at 4° C., and, within 1 h, was centrifuged at 4° C. at 4000 rpm for 10 min to separate plasma. All plasma samples were collected and immediately stored at −20° C. for testing. 30 μL of a plasma sample to be tested and a standard-curve sample were collected, and 300 μL of an acetonitrile solution containing an internal standard (20 ng/mL diazepam) was added and well mixed by 5 min of shaking. The mixture was centrifuged at 13,000 rpm for 10 min, and 80 µL of the supernatant was collected and diluted with 80 μL of ultrapure water. After well mixing, 2 μL of the dilution was collected for liquid chromatography-mass spectrometry analysis, and pharmacokinetic parameters were calculated.

[3] = molecular target: ATR kinase (Homo sapiens (Human), UniProt Q13535); assay: Screening for in vitro inhibitory activity against ATR kinase; type: biochemical; conditions: 10 μM ATP, 0.1 μM U Light-poly GT substrate
Protocol: A 50 ng/μL ATR stock solution was diluted with a kinase buffer (50 mM HEPES, 10 mM MgCl2, 2 mM DTT, 1 mM EGTA, 0.01% Tween 20), and 6 μL of 1.67×, 0.0835 ng/μL working solution was added to each well (final concentration: 0.05 ng/μL). Different compounds dissolved in DMSO were added to wells using a nanoliter pipettor, such that the final concentrations of the compounds were 1000 nM-0.24 nM and the concentrations in positive wells were 100 nM-0.024 nM (4-fold gradient, 7 concentrations in total). Meanwhile, a blank control well (containing no enzyme) and a negative control well (containing enzyme, with the vehicle DMSO added) were set. After the enzyme had reacted with the compound or vehicle for 30 min, a 5×, 50 μM ATP (final concentration: 10 μM) prepared with the kinase buffer and a 5×, 0.5 μM substrate (final concentration: 0.1 μM, U Light-poly GT) were 1:1 mixed, and the mixture was added to wells at 4 μL/well. After the plate was sealed with a sealing film and the plate was incubated at room temperature for 2 h, 5 μL of 4×, 40 mM EDTA (final concentration: 10 mM) was added to each well. After 5 min of incubation at room temperature, 5 μL of a 4×, 8 nM assay reagent (final concentration: 2 nM, Ep-anti-phospho-tyrosine antibody) was added to each well. The plate was incubated at room temperature for 1 h. Plate reading was performed on a PE instrument (excitation: 320 or 340 nm; emission: 665 nm), and four-parameter fitting and IC50 calculations were performed. The results are shown in Table 1, where A represents IC50<50 nM.

[4] = In vitro liver microsomal stability; type: in vitro ADME; conditions: human liver microsomes, NADPH, 37° C.
Protocol: A 200-μL final incubation system contained 20 μL of liver microsomes (protein concentration: 5 mg/mL), 20 μL of NADPH+MgCl2, 2 μL of a substrate, and 158 μL of PBS buffer. The proportion of the organic solvent was 1%. The assay was performed in duplicate (0.2 mL each) for each species. A 180-μL mixture of substrate and enzyme was prepared in each tube. After the mixture and NADPH were pre-incubated at 37° C. for 5 min, 20 μL of NADPH+MgCl2 was added and mixed. 50-μL samples were taken at 0, 15 and 60 min, and the reactions were stopped using ice-cold acetonitrile containing an internal standard.
50-μL incubated samples were taken, and 300 μL of internal standard-containing acetonitrile was added for precipitation. After 5 min of vortexing and shaking, centrifugation (13,000 rpm, 20° C.) was performed for 10 min. 80 μL of the supernatant was added to a 96-well plate and diluted with 80 μL of ultrapure water, and 1 μL of the dilution was injected for LC-MS/MS analysis.

[5] = Homo sapiens, TMD8, 72 h incubation
[6] = plasma, IG 10 mg/kg / IV 1 mg/kg study

Chain of ATR kinase (Q13535 whole entry): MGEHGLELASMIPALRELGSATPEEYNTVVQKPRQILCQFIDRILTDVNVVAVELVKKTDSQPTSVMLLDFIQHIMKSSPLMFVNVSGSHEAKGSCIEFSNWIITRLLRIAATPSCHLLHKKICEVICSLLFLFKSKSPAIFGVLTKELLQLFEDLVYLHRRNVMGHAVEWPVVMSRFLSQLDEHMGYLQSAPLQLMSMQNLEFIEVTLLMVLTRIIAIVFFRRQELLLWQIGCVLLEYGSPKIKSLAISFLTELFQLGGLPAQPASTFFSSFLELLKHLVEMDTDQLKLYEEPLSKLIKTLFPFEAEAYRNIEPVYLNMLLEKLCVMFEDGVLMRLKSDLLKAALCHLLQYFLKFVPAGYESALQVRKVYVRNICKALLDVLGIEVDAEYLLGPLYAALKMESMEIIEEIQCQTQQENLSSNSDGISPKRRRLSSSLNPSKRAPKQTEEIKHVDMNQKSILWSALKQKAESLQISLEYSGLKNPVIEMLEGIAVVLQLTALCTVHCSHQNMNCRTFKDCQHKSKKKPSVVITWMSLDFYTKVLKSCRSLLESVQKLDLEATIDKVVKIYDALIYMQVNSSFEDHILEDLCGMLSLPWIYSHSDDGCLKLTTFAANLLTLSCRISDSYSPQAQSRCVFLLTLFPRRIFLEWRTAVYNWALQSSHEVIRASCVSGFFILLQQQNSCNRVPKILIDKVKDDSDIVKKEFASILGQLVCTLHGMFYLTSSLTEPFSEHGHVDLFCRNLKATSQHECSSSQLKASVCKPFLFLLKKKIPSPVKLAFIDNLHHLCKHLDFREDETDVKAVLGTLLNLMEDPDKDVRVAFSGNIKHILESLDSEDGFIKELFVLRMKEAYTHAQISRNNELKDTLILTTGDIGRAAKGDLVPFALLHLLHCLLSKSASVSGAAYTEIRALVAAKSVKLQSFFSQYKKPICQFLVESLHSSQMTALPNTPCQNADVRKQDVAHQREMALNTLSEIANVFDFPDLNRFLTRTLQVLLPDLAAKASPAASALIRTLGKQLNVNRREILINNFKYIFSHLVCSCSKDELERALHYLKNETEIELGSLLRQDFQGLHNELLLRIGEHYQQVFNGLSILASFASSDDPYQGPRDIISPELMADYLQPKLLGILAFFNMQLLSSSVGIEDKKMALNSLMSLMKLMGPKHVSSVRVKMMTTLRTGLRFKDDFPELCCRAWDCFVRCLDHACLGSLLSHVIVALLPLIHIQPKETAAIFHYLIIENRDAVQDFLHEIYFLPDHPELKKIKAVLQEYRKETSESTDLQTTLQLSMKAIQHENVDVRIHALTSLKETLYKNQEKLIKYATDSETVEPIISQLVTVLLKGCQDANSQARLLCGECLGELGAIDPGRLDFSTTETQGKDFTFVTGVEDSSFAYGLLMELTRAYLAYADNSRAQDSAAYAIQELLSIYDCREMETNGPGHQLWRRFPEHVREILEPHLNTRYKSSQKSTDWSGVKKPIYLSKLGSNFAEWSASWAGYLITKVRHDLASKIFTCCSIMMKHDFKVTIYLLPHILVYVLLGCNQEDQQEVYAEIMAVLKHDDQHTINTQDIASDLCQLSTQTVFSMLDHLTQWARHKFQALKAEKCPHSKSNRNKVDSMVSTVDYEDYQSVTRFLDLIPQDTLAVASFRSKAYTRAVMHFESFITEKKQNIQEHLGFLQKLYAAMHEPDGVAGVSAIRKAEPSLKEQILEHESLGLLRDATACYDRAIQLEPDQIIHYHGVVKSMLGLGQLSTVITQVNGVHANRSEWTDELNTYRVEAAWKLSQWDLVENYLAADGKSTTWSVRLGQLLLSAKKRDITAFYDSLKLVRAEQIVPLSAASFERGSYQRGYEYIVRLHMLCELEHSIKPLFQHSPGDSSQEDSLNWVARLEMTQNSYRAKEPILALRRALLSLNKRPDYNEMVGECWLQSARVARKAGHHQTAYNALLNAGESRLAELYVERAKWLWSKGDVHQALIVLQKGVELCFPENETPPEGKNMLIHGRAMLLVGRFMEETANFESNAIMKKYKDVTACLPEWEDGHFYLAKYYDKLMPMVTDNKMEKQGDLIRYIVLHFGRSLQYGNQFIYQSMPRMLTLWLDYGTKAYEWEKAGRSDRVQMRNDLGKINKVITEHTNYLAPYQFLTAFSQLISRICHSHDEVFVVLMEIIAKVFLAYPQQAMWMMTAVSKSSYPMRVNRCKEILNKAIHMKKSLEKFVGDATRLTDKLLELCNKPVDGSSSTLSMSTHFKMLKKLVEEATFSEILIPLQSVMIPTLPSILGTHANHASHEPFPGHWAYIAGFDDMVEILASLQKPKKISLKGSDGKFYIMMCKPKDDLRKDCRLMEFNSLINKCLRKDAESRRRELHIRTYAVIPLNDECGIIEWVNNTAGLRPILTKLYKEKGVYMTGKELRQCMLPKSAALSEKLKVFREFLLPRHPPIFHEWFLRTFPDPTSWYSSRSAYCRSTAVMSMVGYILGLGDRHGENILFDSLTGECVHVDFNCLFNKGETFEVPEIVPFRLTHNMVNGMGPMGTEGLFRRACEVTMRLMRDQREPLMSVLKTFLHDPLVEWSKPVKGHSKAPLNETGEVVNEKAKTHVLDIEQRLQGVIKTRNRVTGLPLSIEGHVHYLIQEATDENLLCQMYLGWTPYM
Chain of ATR kinase (Q8WXE1 whole entry partner): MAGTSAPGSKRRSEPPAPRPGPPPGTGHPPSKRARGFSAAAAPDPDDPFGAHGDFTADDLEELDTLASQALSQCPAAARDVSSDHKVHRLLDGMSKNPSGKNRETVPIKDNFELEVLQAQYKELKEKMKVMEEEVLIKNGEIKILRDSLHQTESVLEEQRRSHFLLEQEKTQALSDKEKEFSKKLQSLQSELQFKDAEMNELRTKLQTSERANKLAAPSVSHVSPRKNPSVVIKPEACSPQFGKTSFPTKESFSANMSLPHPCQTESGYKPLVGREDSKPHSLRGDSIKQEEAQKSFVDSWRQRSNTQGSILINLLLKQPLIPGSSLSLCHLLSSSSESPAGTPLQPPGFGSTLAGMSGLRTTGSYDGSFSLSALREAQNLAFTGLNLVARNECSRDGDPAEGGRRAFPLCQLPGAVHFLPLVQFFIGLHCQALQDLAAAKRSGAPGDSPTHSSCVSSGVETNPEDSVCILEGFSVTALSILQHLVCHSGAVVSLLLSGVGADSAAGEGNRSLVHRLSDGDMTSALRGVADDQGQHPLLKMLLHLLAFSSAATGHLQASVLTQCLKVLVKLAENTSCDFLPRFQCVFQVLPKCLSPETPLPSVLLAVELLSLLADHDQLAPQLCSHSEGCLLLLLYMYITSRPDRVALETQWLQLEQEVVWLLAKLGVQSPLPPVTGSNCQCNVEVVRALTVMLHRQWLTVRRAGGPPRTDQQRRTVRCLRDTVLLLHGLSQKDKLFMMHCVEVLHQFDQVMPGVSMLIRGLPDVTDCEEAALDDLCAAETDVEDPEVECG

SMILES: Cc1nn(-c2ccn[nH]2)c2nc(N3CCOC[C@H]3C)cc(N=S(C)(C)=O)c12 [Compound 20]
- IC50 [1, 5]: ≤ 200 nM
- bioavailability ([2]; mouse, plasma, oral, IG 10 mg/kg vs IV 1 mg/kg, read-out: Absolute bioavailability F): 74%
- half-life ([2]; mouse, plasma, po, intragastric 10 mg/kg, read-out: IG half-life t1/2 (converted)): 1.93 h
- Vd ([2]; mouse, plasma, IG 10 mg/kg / IV 1 mg/kg study, read-out: Tissue distribution Vd): 1.04 L/kg
- AUC(0-t) ([2]; mouse, plasma, IG 10 mg/kg / IV 1 mg/kg study, read-out: Area under plasma concentration-time curve AUC0-last): 14600 ng·h/mL
- Cmax ([2]; mouse, plasma, IG 10 mg/kg / IV 1 mg/kg study, read-out: Peak concentration Cmax): 6520 ng/mL

SMILES: C[C@@H]1COCCN1c1cc(N=S(C)(=O)C(C)(C)C)c2cnn(-c3ccn[nH]3)c2n1 (some centres unmarked) [Compound 17]
- IC50 [1, 5]: ≤ 200 nM

SMILES: C[C@@H]1COCCN1c1cc(N=S(C)(C)=O)c2c(C3CC3)nn(-c3ccn[nH]3)c2n1 [Compound 22]
- IC50 [1, 5]: ≤ 200 nM

SMILES: CC(C)Cc1nn(-c2cc[nH]n2)c2nc(N3CCOC[C@H]3C)cc(N=S(C)(C)=O)c12 [Compound 21]
- IC50 [1, 5]: ≤ 200 nM

SMILES: C[C@@H]1COCCN1c1cc(N=S(C)(C)=O)c2c(C#CC3CC3)nn(-c3cc[nH]n3)c2n1 [Compound 26]
- IC50 [1, 5]: ≤ 200 nM

SMILES: C[C@@H]1COCCN1c1cc(N=S(C)(C)=O)c2c(C(F)(F)F)nn(-c3ccn[nH]3)c2n1 [Compound 23]
- IC50 [1, 5]: ≤ 200 nM

SMILES: C[C@@H]1COCCN1c1cc(N=S(C)(C)=O)c2c(CCC(F)(F)F)nn(-c3ccn[nH]3)c2n1 [Compound 24]
- IC50 [1, 5]: ≤ 200 nM

SMILES: C[C@@H]1COCCN1c1cc(N=[S@](C)(=O)C2CC2)c2cnn(-c3ccn[nH]3)c2n1 [Compound 10-A]
- IC50 [3]: < 50 nM
- Human liver microsome (Residual % at 60 min) [4]: 95.39%
- IG half-life t1/2 ([2]; intragastric 10 mg/kg): 1.3 h
- Area under plasma concentration-time curve AUC0-last [2, 6]: 13943 ng·h/mL
- Peak concentration Cmax [2, 6]: 4888 ng/mL
- Tissue distribution Vd ([2]; IG 10 mg/kg / IV 1 mg/kg study): 0.68 L/kg
- Absolute bioavailability F ([2]; IG 10 mg/kg vs IV 1 mg/kg): 66%

SMILES: C[C@@H]1COCCN1c1cc(N=S(C)(C)=O)c2c(C(C)(C)C)nn(-c3cc[nH]n3)c2n1 [Compound 25]
- IC50 [1, 5]: ≤ 200 nM

SMILES: C[C@@H]1COCCN1c1cc(N=S2(=O)CCCCC2)c2cnn(-c3ccn[nH]3)c2n1 [Compound 5]
- IC50 [1, 5]: ≤ 200 nM

SMILES: C[C@@H]1COCCN1c1cc(N=[S@@](C)(=O)C2CCCC2)c2cnn(-c3ccn[nH]3)c2n1 [Compound 15-B]
- IC50 [1, 5]: ≤ 200 nM

Further lines, with some results ahead:

- IC50 [3]: < 50 nM
SMILES: C[C@@H]1COCCN1c1cc(N=[S@@](C)(=O)C2CCCC2)c2cnn(-c3ccn[nH]3)c2n1 (single isomer, unassigned) [Compound 15-A]
- IC50 [1, 5]: ≤ 200 nM

- Human liver microsome (Residual % at 60 min) [4]: 96.49%
SMILES: C[C@@H]1COCCN1c1cc(N=S2(=O)CCCC2)c2cnn(-c3ccn[nH]3)c2n1 [Compound 4]
- IC50 [1, 5]: ≤ 200 nM

- Human liver microsome (Residual % at 60 min) [4]: 94.62%
SMILES: C[C@@H]1COCCN1c1cc(N=S2(=O)CCOCC2)c2cnn(-c3ccn[nH]3)c2n1 [Compound 6]

- Human liver microsome (Residual % at 60 min) [4]: 102.05%
SMILES: C[C@@H]1COCCN1c1cc(N=S(C)(C)=O)c2cnn(-c3ccn[nH]3)c2n1 [Compound 1]
- IC50 [1, 5]: ≤ 200 nM

- IC50 [3]: < 50 nM
- IG half-life t1/2 ([2]; intragastric 10 mg/kg): 1.16 h
- Area under plasma concentration-time curve AUC0-last [2, 6]: 5403 ng·h/mL
- Peak concentration Cmax [2, 6]: 2948 ng/mL
- Tissue distribution Vd ([2]; IG 10 mg/kg / IV 1 mg/kg study): 4.58 L/kg
- Absolute bioavailability F ([2]; IG 10 mg/kg vs IV 1 mg/kg): 88%
SMILES: Cc1cc(-n2ncc3c(N=[S@@](C)(=O)C4CC4)cc(N4CCOC[C@H]4C)nc32)[nH]n1 [Compound 19-A]
- IC50 ([1]; 72 h incubation): ≤ 200 nM

- IC50 [3]: < 50 nM
- Human liver microsome (Residual % at 60 min) [4]: 108.36%
SMILES: Cc1cc(-n2ncc3c(N=S(C)(C)=O)cc(N4CCOC[C@H]4C)nc32)[nH]n1 [Compound 13]

- IC50 [3]: < 50 nM
SMILES: C[C@@H]1COCCN1c1cc(N=[S@](C)(=O)C2CCC(F)(F)CC2)c2cnn(-c3ccn[nH]3)c2n1 (single isomer, unassigned) [Compound 16-A]

- Human liver microsome (Residual % at 60 min) [4]: 85.89%
SMILES: CCS(=O)(CC)=Nc1cc(N2CCOC[C@H]2C)nc2c1cnn2-c1ccn[nH]1 [Compound 2]
- IC50 [1, 5]: ≤ 200 nM

- Human liver microsome (Residual % at 60 min) [4]: 106.47%
SMILES: C[C@@H]1COCCN1c1cc(N=S2(=O)CCC2)c2cnn(-c3ccn[nH]3)c2n1 [Compound 3]
- IC50 [1, 5]: ≤ 200 nM

- IC50 [3]: < 50 nM
SMILES: C[C@@H]1COCCN1c1cc(N=[S@@](C)(=O)c2ccc(F)cc2)c2cnn(-c3ccn[nH]3)c2n1 (single isomer, unassigned) [Compound 14-A]
